Test results: patent US20210024542A1 (Torcept Therapeutics, Inc., priority 2018, published 2021)

Tests used:
Type in all cases: cell-based, human
MES-SA = test: OncoPanel cell proliferation assay, MES-SA; conditions: for Cell Count Activity Area: scale 0-10
Procedure: (§1) Cells were grown in RPMI 1640, 10% FBS, 2 mM L-alanyl-L-glutamine, 1 mM Na pyruvate, or a special medium. Cells were seeded into 384-well plates and incubated in a humidified atmosphere of 5% CO2 at 37° C. Compounds were added the day following cell seeding. At the same time, a time zero untreated cell plate was generated. After a 3-day incubation period, cells were fixed and stained to allow fluorescence imaging of nuclei. Compounds (1 mM stock solutions) were serially diluted in half-log steps from the highest test concentration ([…]), and assayed over 10 concentrations with a maximum assay concentration of 0.1% DMSO. Automated fluorescence microscopy was carried out using a Molecular Devices ImageXpress Micro XL high-content imager, and images were collected with a 4× objective. 16-bit TIFF images were acquired and analyzed with MetaXpress 5.1.0.41 software.
(§2) Cell proliferation was measured by the fluorescence intensity of an incorporated nuclear dye. The output is referred to as the relative cell count, where the measured nuclear intensity is transformed to percent of control (POC) using the following formula: […]
(§3) Cellular response parameters were calculated using nonlinear regression to a sigmoidal single-site dose response model:
(§4) Where y is a response measured at concentration x, A and B are the lower and upper limits of the response, C is the concentration at the response midpoint (EC50), and D is the Hill Slope (Ref. 1).
(§5) EC50 is the test compound concentration at the curve inflection point or half the effective response (parameter C of the fitted curve solution). GI50 is the concentration needed to reduce the observed growth by half (midway between the curve maximum and the time zero value). “Cell Count Activity Area” is an estimate of the integrated area above the curve (Barretina, et al. The Cancer Cell Line Encyclopedia enables predictive modelling of anticancer drug sensitivity. Nature 483: 603-607). […] In rare instances, values <0 or >10 may be observed. […] Curve-fitting, calculations, and report generation was performed using a custom data reduction engine and MathIQ based software (AIM).

U-138MG = test: OncoPanel cell proliferation assay, U-138MG; conditions: U-138MG; for Cell Count Activity Area: scale 0-10
Procedure: as §1, §2, §3, §4, §5

U2OS = test: OncoPanel cell proliferation assay, U2OS
Procedure: as §1, with “Cells” for “Cells were grown in RPMI 1640, 10% FBS, 2 mM L-alanyl-L-glutamine, 1 mM Na pyruvate, or a special medium. Cells”
as §2, §3, §4
GI50 is the concentration needed to reduce the observed growth by half (midway between the curve maximum and the time zero value). […] In rare instances, values <0 or >10 may be observed. […] Curve-fitting, calculations, and report generation was performed using a custom data reduction engine and MathIQ based software (AIM).

Row | Structure (SMILES) | Cell Count Activity Area (MES-SA) | IC50 (U-138MG; Homo sapiens, U138-MG, 72 h, 3-day incubation, read-out: Cell Count IC50) | Cell Count Activity Area (U-138MG) | EC50 (U2OS; Homo sapiens, 72 h, 3-day incubation, read-out: Cell Count EC50) | IC50 (U2OS; Homo sapiens, 72 h, 3-day incubation, read-out: Cell Count IC50) | Cell Count Activity Area (U2OS; scale 0-10) | GI50 (MES-SA; Homo sapiens, 72 h, 3-day incubation, read-out: Cell Count GI50)
1 | CO[C@H]1C[C@@H]2CC[C@@H](C)[C@@](O)(O2)C(=O)C(=O)N2CCCC[C@H]2C(=O)O[C@H]([C@H](C)C[C@@H]2CC[C@@H](O)[C@H](OC)C2)CC(=O)[C@H](C)/C=C(\C)[C@@H](O)[C@@H](OC)C(=O)[C@H](C)C[C@H](C)/C=C/C=C/C=C/1C [Rapamycin, reference compound] | 5.39 | > 1 µM | 3.14 | 0.00065 µM | > 1 µM | 3.04 | 
2 | CN[C@@H]1C[C@H]2O[C@@](C)([C@@H]1OC)n1c3ccccc3c3c4c(c5c6ccccc6n2c5c31)C(=O)NC4 [Staurosporine, reference compound] | 2.80 |  | 3.72 |  |  |  | 0.013 µM
